Where a name gives a salt, the structure may show the parent alone.
Target: T1, recombinant human NR2F6 protein (Homo sapiens, UniProt P10588)
T1 sequence (P10588 1-404): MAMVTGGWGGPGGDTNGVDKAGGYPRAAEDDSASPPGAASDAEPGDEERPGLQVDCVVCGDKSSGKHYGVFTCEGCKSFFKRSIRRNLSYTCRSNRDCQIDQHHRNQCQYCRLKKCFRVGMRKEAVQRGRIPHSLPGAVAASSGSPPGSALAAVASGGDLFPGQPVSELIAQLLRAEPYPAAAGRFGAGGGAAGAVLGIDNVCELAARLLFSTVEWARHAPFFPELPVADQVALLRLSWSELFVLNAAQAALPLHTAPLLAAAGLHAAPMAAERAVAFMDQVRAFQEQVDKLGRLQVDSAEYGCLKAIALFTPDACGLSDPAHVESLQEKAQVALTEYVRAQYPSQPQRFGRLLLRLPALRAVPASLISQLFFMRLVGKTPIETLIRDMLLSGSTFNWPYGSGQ
Assay: Biochemical NR2F6 binding assay (EnSpire label-free)
Details: label-free binding to immobilized purified recombinant human NR2F6; ligands 1 nM to 100 uM, 1% DMSO
Outline: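 Recombinant human NR2F6 was immobilized at pH 4.5 (50 μg/well, 16 h, 4° C) on label-free biosensor plates. Ligands were tested from 1 nM to 100 uM in 1% DMSO, with readings over 30 minutes. Binding was measured as reflected-wavelength shift (pm), and EC50 was derived from concentration-response curves.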

SMILES	EC50
O=C(Nc1cccc(Oc2ccc(C(F)(F)F)nc2)c1)[C@H]1CNC[C@@H]1c1ccccc1 (racemic) [Compound I-104, (±)-trans-4-Phenyl-N-(3-{[6-(trifluoromethyl)pyridin-3-yl]oxy}phenyl) pyrrolidine-3-carboxamide dihydrochloride]	< 1 µM
O=C(Nc1cccc2cnccc12)[C@@H]1CNC[C@H]1c1nccs1 [Compound I-59, (3S,4S)—N-(Isoquinolin-5-yl)-4-(1,3-thiazol-2-yl)pyrrolidine-3-carboxamide dihydrochloride]	> 50 µM
c1ccc([C@@H]2CNC[C@@H]2Oc2cccc3cnccc23)cc1 (racemic) [Compound I-61, 5-{[(±)-cis-4-Phenylpyrrolidin-3-yl]oxy}isoquinoline dihydrochloride]	1 to 10 µM
Cn1ccc2c(NC(=O)[C@H]3CNC[C@@H]3c3ccccc3)cccc2c1=O [Compound I-84, (3R,4S)—N-(2-Methyl-1-oxo-1,2-dihydroisoquinolin-5-yl)-4-phenylpyrrolidine-3-carboxamide hydrochloride]	> 50 µM
O=C(Nc1cccc2cnccc12)[C@@H]1CNC[C@H]1c1cccs1 [Compound I-56, (3S,4S)—N-(Isoquinolin-5-yl)-4-(thiophen-2-yl)pyrrolidine-3-carboxamide]	> 50 µM
O=C(Nc1cccc(-c2ccc(F)nc2)c1)[C@@H]1CNC[C@H]1c1ccccc1 (racemic) [Compound I-26, (±)-trans-N-[3-(6-Fluoropyridin-3-yl)phenyl]-4-phenylpyrrolidine-3-carboxamide]	1 to 10 µM
O=S(=O)(N[C@@H]1CNC[C@H]1c1ccccc1)c1cccc2cnccc12 (racemic) [Compound I-8, (±)-trans-N-(4-Phenylpyrrolidin-3-yl)isoquinoline-5-sulfonamide]	> 50 µM
O=C(Nc1cccc(-c2cccnc2)c1)[C@@H]1CN(C2CCOCC2)C[C@H]1c1ccccc1 (racemic) [Compound I-54, (±)-trans-4-Phenyl-N-[3-(pyridin-3-yl)phenyl]-1-(tetrahydro-2H-pyran-4-yl)pyrrolidine-3-carboxamide]	> 50 µM
CN1C[C@@H](C(=O)Nc2cccc(-c3cccnc3)c2)[C@H](c2ccccc2)C1 (racemic) [Compound I-46, (±)-trans-1-Methyl-4-phenyl-N-[3-(pyridin-3-yl)phenyl]pyrrolidine-3-carboxamide]	> 50 µM
c1ccc([C@H]2CNC[C@@H]2OCc2cccc3cnccc23)cc1 (racemic) [Compound I-73, 5-({[(±)-trans-4-Phenylpyrrolidin-3-yl]oxy}methyl)isoquinoline dihydrochloride]	> 50 µM
O=C(NC1CCN(c2ccccc2)CC1)[C@@H]1CNC[C@H]1c1ccccc1 [Compound I-123, (3S,4R)-3-[(l-Phenylpiperidin-4-yl)carbamoyl]-4-phenylpyrrolidine dihydrochloride]	1 to 10 µM
O=C(Nc1cccc2cnccc12)[C@H]1CNC[C@H]1c1ccccc1 [Compound I-88, (3R,4R)—N-(Isoquinolin-5-yl)-4-phenylpyrrolidine-3-carboxamide dihydrochloride]	1 to 10 µM
Cc1nccc2c(NC(=O)[C@H]3CNC[C@@H]3c3ccccc3)cccc12 [Compound I-30, (3R,4S)—N-(1-Methylisoquinolin-5-yl)-4-phenylpyrrolidine-3-carboxamide dihydrochloride]	< 1 µM
O=C(Nc1cccc2cnccc12)N1CCC(c2ccccc2)C1 (stereo not shown) [Compound I-79, N-(Isoquinolin-5-yl)-3-phenylpyrrolidine-1-carboxamide]	> 50 µM
N#Cc1ccc(N2CCC(NC(=O)[C@@H]3CNC[C@H]3c3ccccc3)CC2)cc1 [Compound I-122, (3S,4R)-3-{[1-(4-Cyanophenyl)lpiperidin-4-yl]carbamoyl]}-4-phenylpyrrolidine dihydrochloride]	< 1 µM
O=C(Nc1ccc(Oc2cccnc2)cc1)[C@H]1CNC[C@@H]1c1ccccc1 (racemic) [Compound I-70, (±)-trans-4-Phenyl-N-[4-(pyridin-3-yloxy)phenyl]pyrrolidine-3-carboxamide dihydrochloride]	> 50 µM
O=C(Nc1cc2ccccc2cn1)[C@@H]1CNC[C@H]1c1ccccc1 (racemic) [Compound I-14, (±)-trans-N-(Isoquinolin-3-yl)-4-phenylpyrrolidine-3-carboxamide dihydrochloride]	1 to 10 µM
c1ccc([C@@H]2CNC[C@H]2Oc2nc(-c3cccnc3)cs2)cc1 (racemic) [Compound I-5, (±)-trans-3-{2-[(4-Phenylpyrrolidin-3-yl)oxy]-1,3-thiazol-4-yl}pyridine]	1 to 10 µM
Cc1cccc(Oc2cccc(NC(=O)[C@H]3CNC[C@@H]3c3ccccc3)c2)c1 (racemic) [Compound I-97, (±)-trans-4-Phenyl-N-[3-(3-methylphenoxy)phenyl]pyrrolidine-3-carboxamide hydrochloride]	1 to 10 µM
O=C(Nc1ccccc1Oc1cccnc1)[C@H]1CNC[C@@H]1c1ccccc1 (racemic) [Compound I-68, (±)-trans-4-Phenyl-N-[2-(pyridin-3-yloxy)phenyl]pyrrolidine-3-carboxamide dihydrochloride]	1 to 10 µM
S=C(Nc1cccc2cnccc12)N[C@@H]1CN(Cc2ccccc2)C[C@H]1c1ccccc1 (racemic) [Compound I-6, (±)-trans-1-Isoquinolin-5-yl-3-(1-benzyl-4-phenylpyrrolidin-3-yl)thiourea]	1 to 10 µM
S=C(Nc1cccc2cnccc12)O[C@@H]1CNC[C@@H]1c1ccccc1 (racemic) [Compound I-3, (±)-cis-O-(4-Phenylpyrrolidin-3-yl) isoquinolin-5-ylcarbamothioate]	10 to 50 µM
